Source: US9815846B2 (Merck Sharp & Dohme Corp., priority 2014, dated 2017)

Target: human TrkA receptor (Homo sapiens (Human), UniProt P04629)
Experiment: DiscoverX PathHunter TrkA functional assay (NGF-stimulated U2OS cells)
Assay type: cell-based
Conditions: U2OS cells expressing human TrkA-PK, Shc1-EA and p75NTR; compound 1 h, then NGF at ~80% of maximal response for 3 h; luminescence

Chain of human TrkA receptor (P04629 33-796): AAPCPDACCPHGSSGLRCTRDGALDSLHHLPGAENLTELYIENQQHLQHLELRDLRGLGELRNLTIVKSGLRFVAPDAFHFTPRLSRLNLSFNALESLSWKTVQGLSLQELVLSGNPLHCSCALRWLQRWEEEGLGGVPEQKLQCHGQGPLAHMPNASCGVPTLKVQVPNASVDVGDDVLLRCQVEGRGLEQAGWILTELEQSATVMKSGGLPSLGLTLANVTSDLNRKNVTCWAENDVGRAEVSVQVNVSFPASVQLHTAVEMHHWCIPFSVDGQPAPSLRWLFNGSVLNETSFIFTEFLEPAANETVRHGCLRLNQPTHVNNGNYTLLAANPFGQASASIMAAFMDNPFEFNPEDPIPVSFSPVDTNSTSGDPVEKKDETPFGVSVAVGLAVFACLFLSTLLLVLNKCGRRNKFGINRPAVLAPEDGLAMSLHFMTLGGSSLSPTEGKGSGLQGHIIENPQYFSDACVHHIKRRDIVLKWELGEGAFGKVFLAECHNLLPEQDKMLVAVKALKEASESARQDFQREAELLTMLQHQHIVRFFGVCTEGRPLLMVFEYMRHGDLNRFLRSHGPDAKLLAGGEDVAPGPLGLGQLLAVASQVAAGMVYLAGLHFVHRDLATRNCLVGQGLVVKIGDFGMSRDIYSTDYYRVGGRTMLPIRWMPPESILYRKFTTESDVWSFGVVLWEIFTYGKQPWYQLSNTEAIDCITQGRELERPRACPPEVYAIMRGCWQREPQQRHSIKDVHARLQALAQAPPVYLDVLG

Row | Structure (SMILES) | IC50 [nM]
1 | Cn1ccc(-c2cc(C(=O)Nc3cnc(CCC(N)=O)nc3-c3ccccc3)c(F)cc2C(F)(F)F)n1 [Example 128, N-(2-(3-Amino-3-oxopropyl)-4-phenylpyrimidin-5-yl)-2-fluoro-5-(1-methyl-1H-pyrazol-3-yl)-4-(trifluoromethyl)benzamide] | 0.54
2 | Cn1ccc(-c2cc(C(=O)Nc3cnc(Cc4nnc[nH]4)nc3-c3ccccc3)c(F)cc2C(F)(F)F)n1 [Example 129, N-(2-((4H-1,2,4-Triazol-3-yl)methyl)-4-phenylpyrimidin-5-yl)-2-fluoro-5-(1-methyl-1H-pyrazol-3-yl)-4-(trifluoromethyl)benzamide] | 0.25
3 | Cn1ccc(-c2cc(C(=O)Nc3cnc(C(N)C(N)=O)nc3-c3ccccc3)c(F)cc2C(F)(F)F)n1 (stereo not drawn) [Example 130, N-(2-(1,2-Diamino-2-oxoethyl)-4-phenylpyrimidin-5-yl)-2-fluoro-5-(1-methyl-1H-pyrazol-3-yl)-4-(trifluoromethyl)benzamide] | 4.6
4 | Cn1ccc(-c2cc(C(=O)Nc3cnc(C4NC(=O)NC4=O)nc3-c3ccccc3)c(F)cc2C(F)(F)F)n1 (stereo not drawn) [Example 131, N-(2-(2,5-Dioxoimidazolidin-4-yl)-4-phenylpyrimidin-5-yl)-2-fluoro-5-(1-methyl-1H-pyrazol-3-yl)-4-(trifluoromethyl)benzamide] | 4.4
5 | CC(=O)NCc1cccc(-c2nc(C)ncc2NC(=O)c2cc(-c3ccn(C)n3)c(C(F)(F)F)cc2F)c1 [Example 132, N-(4-(3-(Acetamidomethyl)phenyl)-2-methylpyrimidin-5-yl)-2-fluoro-5-(1-methyl-1H-pyrazol-3-yl)-4-(trifluoromethyl)benzamide] | 16
6 | CC(=O)Nc1cccc(-c2nc(C)ncc2NC(=O)c2cc(-c3ccn(C)n3)c(C(F)(F)F)cc2F)c1 [Example 133, N-(4-(3-acetamidophenyl)-2-methylpyrimidin-5-yl)-2-fluoro-5-(1-methyl-1H-pyrazol-3-yl)-4-(trifluoromethyl)benzamide] | 4.6
7 | Cc1ncc(NC(=O)c2cc(-c3ccn(C)n3)c(C(F)(F)F)cc2F)c(-c2ccccc2CCN)n1 [Example 134, N-(4-(2-(2-aminoethyl)phenyl)-2-methylpyrimidin-5-yl)-2-fluoro-5-(1-methyl-1H-pyrazol-3-yl)-4-(trifluoromethyl)benzamide] | 7
8 | Cc1ncc(NC(=O)c2cc(-c3ccn(C)n3)c(C(F)(F)F)cc2F)c(-c2ccccc2CCN(C)C)n1 [Example 135, N-(4-(2-(2-(Dimethylamino)ethyl)phenyl)-2-methylpyrimidin-5-yl)-2-fluoro-5-(1-methyl-1H-pyrazol-3-yl)-4-(trifluoromethyl)benzamide] | 0.57
9 | Cc1ncc(NC(=O)c2cc(-c3ccn(C)n3)c(C(F)(F)F)cc2F)c(-c2ccccc2CO)n1 [Example 136, 2-Fluoro-N-(4-(2-(hydroxymethyl)phenyl)-2-methylpyrimidin-5-yl)-5-(1-methyl-1H-pyrazol-3-yl)-4-(trifluoromethyl)benzamide] | 4.4
10 | O=C(Nc1cc(-c2csc(C3CC3)n2)cnc1N1CCC[C@@H]1CO)c1cc(-c2ncccn2)c(C(F)(F)F)cc1F [Example 137, (R)—N-(5-(2-Cyclopropylthiazol-4-yl)-2-(2-(hydroxymethyl)pyrrolidin-1-yl)pyridin-3-yl)-2-fluoro-5-(pyrimidin-2-yl)-4-(trifluoromethyl)benzamide] | 2.9
11 | Cn1ccc(-c2cnc(N3CCC[C@@H]3CO)c(NC(=O)c3cc(-c4ncccn4)c(C(F)(F)F)cc3F)c2)n1 [Example 138, (R)-2-fluoro-N-(2-(2-(hydroxymethyl)pyrrolidin-1-yl)-5-(1-methyl-1H-pyrazol-3-yl)pyridin-3-yl)-5-(pyrimidin-2-yl)-4-(trifluoromethyl)benzamide] | 27
12 | O=C(Nc1cc2c(nc1-c1ccccc1)CCNC2=O)c1cc(-c2ncccn2)c(C(F)(F)F)cc1F [Example 139, 2-Fluoro-N-(5-oxo-2-phenyl-5,6,7,8-tetrahydro-1,6-naphthyridin-3-yl)-5-(pyrimidin-2-yl)-4-(trifluoromethyl)benzamide] | 1.4
13 | Cn1ccc(-c2cc(C(=O)Nc3cc4c(nc3-c3ccccc3)CCN(CC(N)=O)C4)ccc2C(F)(F)F)n1 [Example 140, N-(6-(2-Amino-2-oxoethyl)-2-phenyl-5,6,7,8-tetrahydro-1,6-naphthyridin-3-yl)-3-(1-methyl-1H-pyrazol-3-yl)-4-(trifluoromethyl)benzamide] | 1.8
14 | Cn1ccc(-c2cc(C(=O)Nc3cc4c(nc3-c3ccccn3)CCNC4=O)c(F)cc2C(F)(F)F)n1 [Example 141, 2-Fluoro-5-(1-methyl-1H-pyrazol-3-yl)-N-(5-oxo-2-(pyridin-2-yl)-5,6,7,8-tetrahydro-1,6-naphthyridin-3-yl)-4-(trifluoromethyl)benzamide] | 14
15 | Cn1ccc(-c2cc(C(=O)Nc3cc4c(nc3-c3ccccc3)CNC(=O)C4)ccc2C(F)(F)F)n1 [Example 142, 3-(1-Methyl-1H-pyrazol-3-yl)-N-(6-oxo-2-phenyl-5,6,7,8-tetrahydro-1,7-naphthyridin-3-yl)-4-(trifluoromethyl)benzamide] | 4.7
16 | Cn1ccc(-c2cc(C(=O)Nc3cnc4c(c3-c3ccccc3)CCN(C(=O)CO)C4)ccc2C(F)(F)F)n1 [Example 143, N-(7-(2-Hydroxyacetyl)-4-phenyl-5,6,7,8-tetrahydro-1,7-naphthyridin-3-yl)-3-(1-methyl-1H-pyrazol-3-yl)-4-(trifluoromethyl)benzamide] | 19
17 | Cn1ccc(-c2cc(C(=O)Nc3cc4c(nc3-c3ccccc3)CN(C(N)=O)CC4)c(F)cc2C(F)(F)F)n1 [Example 144, 3-(2-Fluoro-5-(1-methyl-1H-pyrazol-3-yl)-4-(trifluoromethyl)benzamido)-2-phenyl-5,6-dihydro-1,7-naphthyridine-7(8H)-carboxamide] | 0.26
18 | Cn1ccc(-c2cc(C(=O)Nc3cc4c(nc3-c3ccccc3)CCNC4)c(F)cc2C(F)(F)F)n1 [Example 145, 2-fluoro-5-(1-methyl-1H-pyrazol-3-yl)-N-(2-phenyl-5,6,7,8-tetrahydro-1,6-naphthyridin-3-yl)-4-(trifluoromethyl)benzamide] | 2.9
19 | O=C(Nc1cc2c(nc1-c1ccccc1)CCNC2)c1cc(-c2ccccn2)c(C(F)(F)F)cc1F [Example 146, 2-fluoro-N-(2-phenyl-5,6,7,8-tetrahydro-1,6-naphthyridin-3-yl)-5-(pyridin-2-yl)-4-(trifluoromethyl)benzamide] | 13
20 | CC(=O)N1CCc2nc(-c3ccccc3)c(NC(=O)c3ccc(C(F)(F)F)c(-c4ncccn4)c3)cc2C1 [Example 147, N-(6-acetyl-2-phenyl-5,6,7,8-tetrahydro-1,6-naphthyridin-3-yl)-3-(pyrimidin-2-yl)-4-(trifluoromethyl)benzamide] | 14
21 | CC(=O)N1CCc2nc(-c3ccccc3)c(NC(=O)c3cc(-c4ncccn4)c(C(F)(F)F)cc3F)cc2C1 [Example 148, N-(6-acetyl-2-phenyl-5,6,7,8-tetrahydro-1,6-naphthyridin-3-yl)-2-fluoro-5-(pyrimidin-2-yl)-4-(trifluoromethyl)benzamide] | 3.3
22 | CS(=O)(=O)N1CCc2nc(-c3ccccc3)c(NC(=O)c3cc(-c4ncccn4)c(C(F)(F)F)cc3F)cc2C1 [Example 149, 2-fluoro-N-(6-(methylsulfonyl)-2-phenyl-5,6,7,8-tetrahydro-1,6-naphthyridin-3-yl)-5-(pyrimidin-2-yl)-4-(trifluoromethyl)benzamide] | 11
23 | CNC(=O)N1CCc2nc(-c3ccccc3)c(NC(=O)c3cc(-c4ncccn4)c(C(F)(F)F)cc3F)cc2C1 [Example 150, 3-(2-fluoro-5-(pyrimidin-2-yl)-4-(trifluoromethyl)benzamido)-N-methyl-2-phenyl-7,8-dihydro-1,6-naphthyridine-6(5H)-carboxamide] | 14
24 | CC(=O)N1CCc2nc(-c3ccccc3)c(NC(=O)c3cc(-c4ccn(C)n4)c(C(F)(F)F)cc3Cl)cc2C1 [Example 151, N-(6-acetyl-2-phenyl-5,6,7,8-tetrahydro-1,6-naphthyridin-3-yl)-2-chloro-5-(1-methyl-1H-pyrazol-3-yl)-4-(trifluoromethyl)benzamide] | 0.54
25 | Cn1ccc(-c2cc(C(=O)Nc3cc4c(nc3-c3ccccc3)CCNC4=O)c(F)cc2C(F)(F)F)n1 [Example 152, 2-fluoro-5-(1-methyl-1H-pyrazol-3-yl)-N-(5-oxo-2-phenyl-5,6,7,8-tetrahydro-1,6-naphthyridin-3-yl)-4-(trifluoromethyl)benzamide] | 0.069
26 | Cn1ccc(-c2cc(C(=O)Nc3cc4c(nc3-c3ccccc3)CC(=O)NC4)c(F)cc2C(F)(F)F)n1 [Example 153, 2-fluoro-5-(1-methyl-1H-pyrazol-3-yl)-N-(7-oxo-2-phenyl-5,6,7,8-tetrahydro-1,6-naphthyridin-3-yl)-4-(trifluoromethyl)benzamide] | 6.8
27 | Cn1ccc(-c2cc(C(=O)Nc3cc4c(nc3-c3ccccc3)CCN(C(N)=O)C4)c(F)cc2C(F)(F)F)n1 [Example 154, 3-(2-fluoro-5-(1-methyl-1H-pyrazol-3-yl)-4-(trifluoromethyl)benzamido)-2-phenyl-7,8-dihydro-1,6-naphthyridine-6(5H)-carboxamide] | 0.76
28 | NC(=O)N1CCc2nc(-c3ccccc3)c(NC(=O)c3cc(-c4ncccn4)c(C(F)(F)F)cc3F)cc2C1 [Example 155, 3-(2-fluoro-5-(pyrimidin-2-yl)-4-(trifluoromethyl)benzamido)-2-phenyl-7,8-dihydro-1,6-naphthyridine-6(5H)-carboxamide] | 2.3
29 | Cn1ccc(-c2cc(C(=O)Nc3cc4c(nc3-c3ccccc3)CCN(C(=O)CN)C4)ccc2C(F)(F)F)n1 [Example 156, N-(6-glycyl-2-phenyl-5,6,7,8-tetrahydro-1,6-naphthyridin-3-yl)-3-(1-methyl-1H-pyrazol-3-yl)-4-(trifluoromethyl)benzamide] | 1
30 | Cn1ccc(-c2cc(C(=O)Nc3cc4c(nc3-c3ccccc3)CCN(CC(=O)O)C4)ccc2C(F)(F)F)n1 [Example 157, 2-(3-(3-(1-methyl-1H-pyrazol-3-yl)-4-(trifluoromethyl)benzamido)-2-phenyl-7,8-dihydro-1,6-naphthyridin-6(5H)-yl)acetic acid] | 23
